# Tested on: rodents
# Test: effectiveness of respiratory irritants in the foam in hastening the death of rodents
# Format: in vivo
# Details: rodents that inhaled the foam/irritant combination
# Experimental: Furthermore, it is available in commercial quantities in a finely ground form which disperses quickly and evenly into the concentrated foaming agent and remains suspended as the foaming agent is diluted and aerated. Alternative respiratory irritants may share all of or many of these characteristics and include ground horseradish and powdered elemental sulphur.
# In the preferred embodiment, a concentrated composition is made by mixing the foaming agent in liquid concentrate form with the mustard powder, preferably in an approximate 3:1 ratio by weight, with the goal of achieving a 1% (w:v) foaming agent concentration and approximately 0.3% to 0.5% (w:v) mustard concentration when the concentrate is diluted to a use level. The proprietary concentrated foaming agents have specific gravities of approximately 1.029 kg per liter and it is generally recommended by the respective manufacturers that it be used in 0.1% to 1% concentration.
compound,measurement,value
"[S] [powdered elemental sulphur, elemental sulphur]",effectiveness as respiratory irritant in the foam,effective but less so than the ground mustard

# Reference: patent publication US7070767B2, “Fossorial rodent control compositions and methods” (priority 1998, dated 2006)
